Paper PMC5395518, “Design, synthesis, and biological evaluation of the novel glycyrrhetinic acid-cinnamoyl hybrids as anti-tumor agents” (Chemistry Central Journal, 2016)

Experiments:
HT-29 cells = assay: MTT cytotoxicity assay, HT-29; format: cell-based, human; conditions: mean ± SD (n = 3)
Source text: (§1) HepG2 (human hepatocellular carcinoma), Hela (human cervical cancer), HT-29 (human colon carcinoma), MDCK (Madin–Darby canine kidney), H9C2 (rat myocardial cells) and HY926 were purchased from the Chinese Academy of Medical Sciences and Peking Union Medical College. All of these cell lines were maintained in RPMI-1640 (DMEM) supplemented with 10% (v/v) fetal bovine serum (FBS) and 1% (v/v) penicillin/streptomycin (Thermo Technologies, New York, NY, USA) under a humidified atmosphere containing 5% CO2 at 37 °C. To provide stock solutions which were used to prepare various concentrations of treatment media, GA and hybrids were added a volume of DMSO.
(§2) The cytotoxicity of these compounds was evaluated on three human cancer cell lines (HepG2, HT-29, Hela) and three non-tumor cells lines (MDCK, HY926, H9C2) and MTT assay was performed to detect the cell proliferation. Simply, exponentially growing cells were cultured in 96-well plates (3 × 10^3 cells/well). And the plates were placed in a humidified atmosphere for 72 h at 37 °C with 5% CO2. After added MTT solution (5 mg/mL) 20 μL to each well, the plate was incubated for a further 4 h. Then the cell supernatant was removed and 150 μL DMSO was added. Finally, the absorbance was determined at wavelength of 490 nm with the ELISA. Wells without drugs were used to be blanks. The IC50 values were calculated using Logit-method. The following Eq. (1) was proposed to calculate the inhibitory rate of cell growth:1 %inhibition=1-Sample group OD/Control group OD×100%

Hela cells = assay: MTT cytotoxicity assay, Hela; format: cell-based, human; conditions: MTT, 72 h, mean ± SD (n = 3)
Source text: as §1, §2

HY926 cells = assay: MTT cytotoxicity assay, HY926 (non-tumor); format: cell-based; conditions: MTT, 72 h, mean ± SD (n = 3), non-tumor cells
Source text: as §1, §2

MDCK cells = assay: MTT cytotoxicity assay, MDCK (non-tumor); format: cell-based, canine; conditions: MTT, 72 h, mean ± SD (n = 3), non-tumor cells
Source text: as §1, §2

HepG2 cells = assay: MTT cytotoxicity assay, HepG2; format: cell-based, human; conditions: mean ± SD (n = 3)
Source text: as §1, §2

H9C2 cells = assay: MTT cytotoxicity assay, H9C2 (non-tumor); format: cell-based, rat; conditions: MTT, 72 h, mean ± SD (n = 3), non-tumor cells
Source text: as §1, §2

Row | Structure (SMILES) | IC50 (HT-29 cells; 72 h) [µM] | IC50 (Hela cells) [µM] | IC50 (HY926 cells) [µM] | IC50 (MDCK cells) [µM] | IC50 (HepG2 cells; 72 h) [µM] | IC50 (H9C2 cells) [µM] | IC50 (HY926 cells; listed as DDP) [µM] | IC50 (MDCK cells; listed as DDP) [µM] | IC50 (H9C2 cells; listed as DDP) [µM] | IC50 (HT-29 cells; Homo sapiens, HT-29, 72 h) [µM] | IC50 (Hela cells; Homo sapiens, HeLa) [µM] | IC50 (MDCK cells; Canis lupus familiaris, MDCK) [µM] | IC50 (HepG2 cells; Homo sapiens, HepG2, 72 h) [µM] | IC50 (H9C2 cells; Rattus norvegicus, H9c2) [µM]
1 | CC1(C)[C@@H](OC(=O)/C=C/c2ccccc2)CC[C@]2(C)[C@H]3C(=O)C=C4[C@@H]5C[C@@](C)(C(=O)O)CC[C@]5(C)CC[C@@]4(C)[C@]3(C)CC[C@@H]12 [Compound 1a, Cinnamoyl-3β-hydroxy-11-oxoolean-12-en-30-oic acid] | 22.3 ± 1.75 | 23.7 ± 2.98 | 28.9 ± 1.85 | 22.6 ± 1.38 | 24.4 ± 1.39 | 46.1 ± 2.01 |  |  |  |  |  |  |  | 
2 | CC1(C(=O)O)CCC2(C)CCC3(C)C(=CC(=O)C4C5(C)CCC(OC(=O)CCc6ccccc6)C(C)(C)C5CCC43C)C2C1 (stereo not drawn) [Compound 1b, Phenylpropanoyl-3β-hydroxy-11-oxoolean-12-en-30-oic acid] | 28.6 ± 2.99 | 26.9 ± 1.74 | 33.6 ± 3.09 | 33.3 ± 2.98 | 32.3 ± 1 | > 50 |  |  |  |  |  |  |  | 
3 | Cc1ccc(/C=C/C(=O)OC2CCC3(C)C(CCC4(C)C3C(=O)C=C3C5CC(C)(C(=O)O)CCC5(C)CCC34C)C2(C)C)cc1 (stereo not drawn) [Compound 2a, (4-Methyl) cinnamoyl-3β-hydroxy-11-oxoolean-12-en-30-oic acid] | 21.7 ± 1.81 | 14.2 ± 1.1 | 27.6 ± 1.84 | 38 ± 1.81 | 22.1 ± 1.18 | > 50 |  |  |  |  |  |  |  | 
4 | COc1cccc(CCC(=O)OC2CCC3(C)C(CCC4(C)C3C(=O)C=C3C5CC(C)(C(=O)O)CCC5(C)CCC34C)C2(C)C)c1OC (stereo not drawn) [Compound 2b, (2,3-Dimethoxy) phenylpropanoyl-3β-hydroxy-11-oxoolean-12-en-30-oic acid] | 29.3 ± 2.22 | 23.1 ± 2.33 | > 50 | 41.3 ± 1.48 | 33.1 ± 2.09 | 45.8 ± 1.8 |  |  |  |  |  |  |  | 
5 | COc1ccccc1/C=C/C(=O)OC1CCC2(C)C(CCC3(C)C2C(=O)C=C2C4CC(C)(C(=O)O)CCC4(C)CCC23C)C1(C)C (stereo not drawn) [Compound 3a, (2-Methoxy) cinnamoyl-3β-hydroxy-11-oxoolean-12-en-30-oic acid] | 22.2 ± 2.34 | 24.6 ± 1.72 | > 50 | 22.9 ± 2.43 | 32 ± 1.9 | > 50 |  |  |  |  |  |  |  | 
6 | COc1ccc(CCC(=O)O[C@H]2CC[C@]3(C)[C@H]4C(=O)C=C5[C@@H]6C[C@@](C)(C(=O)O)CC[C@]6(C)CC[C@@]5(C)[C@]4(C)CC[C@H]3C2(C)C)c(OC)c1OC [Compound 3b, (2,3,4-Trimethoxy) phenylpropanoyl-3β-hydroxy-11-oxoolean-12-en-30-oic acid] | 26.2 ± 1.24 | 22.5 ± 2.16 | 38.5 ± 2.02 | > 30 | 27.3 ± 1.95 | > 50 |  |  |  |  |  |  |  | 
7 | COc1cccc(/C=C/C(=O)OC2CCC3(C)C(CCC4(C)C3C(=O)C=C3C5CC(C)(C(=O)O)CCC5(C)CCC34C)C2(C)C)c1 (stereo not drawn) [Compound 4a, (3-Methoxy) cinnamoyl-3β-hydroxy-11-oxoolean-12-en-30-oic acid] | 14.9 ± 1.8 | 17.5 ± 1.52 | 31 ± 1.87 | 22.2 ± 2.56 | 12.7 ± 1.1 | > 50 |  |  |  |  |  |  |  | 
8 | COc1cc(CCC(=O)OC2CCC3(C)C(CCC4(C)C3C(=O)C=C3C5CC(C)(C(=O)O)CCC5(C)CCC34C)C2(C)C)cc(OC)c1OC (stereo not drawn) [Compound 4b, (3,4,5-Trimethoxy) phenylpropanoyl-3β-hydroxy-11-oxoolean-12-en-30-oic acid] | 22.4 ± 1.2 | 28.7 ± 1.68 | > 50 | > 30 | 22.4 ± 1.29 | > 50 |  |  |  |  |  |  |  | 
9 | COc1ccc(C=CC(=O)OC2CCC3(C)C(CCC4(C)C3C(=O)C=C3C5CC(C)(C(=O)O)CCC5(C)CCC34C)C2(C)C)cc1 (stereo not drawn) [Compound 5a, (4-Methoxy) cinnamoyl-3β-hydroxy-11-oxoolean-12-en-30-oic acid] | 33 ± 1.92 | 23.4 ± 1.38 | > 50 | 21.7 ± 1.01 | 31.2 ± 1.34 | 36.1 ± 1.92 |  |  |  |  |  |  |  | 
10 | COc1cccc(/C=C/C(=O)OC2CCC3(C)C(CCC4(C)C3C(=O)C=C3C5CC(C)(C(=O)O)CCC5(C)CCC34C)C2(C)C)c1OC (stereo not drawn) [Compound 6a, (2,3-Dimethoxy) cinnamoyl-3β-hydroxy-11-oxoolean-12-en-30-oic acid] | 24.4 ± 1.76 | 22.5 ± 2.08 | 25 ± 1.38 | 33.7 ± 1.4 | 24.4 ± 1.44 | > 50 |  |  |  |  |  |  |  | 
11 | COc1ccc(OC)c(/C=C/C(=O)OC2CCC3(C)C(CCC4(C)C3C(=O)C=C3C5CC(C)(C(=O)O)CCC5(C)CCC34C)C2(C)C)c1 (stereo not drawn) [Compound 7a, (2,5-Dimethoxy) cinnamoyl-3β-hydroxy-11-oxoolean-12-en-30-oic acid] | 26.4 ± 1.96 | 28 ± 1.63 | 45.1 ± 2.25 | > 50 | 25.4 ± 1.97 | > 50 |  |  |  |  |  |  |  | 
12 | COc1cc(/C=C/C(=O)O[C@H]2CC[C@]3(C)[C@H]4C(=O)C=C5[C@@H]6C[C@@](C)(C(=O)O)CC[C@]6(C)CC[C@@]5(C)[C@]4(C)CC[C@H]3C2(C)C)cc(OC)c1OC [Compound 9a, (3,4,5-Trimethoxy) cinnamoyl-3β-hydroxy-11-oxoolean-12-en-30-oic acid] | 25.5 ± 1.29 | 30.7 ± 1.89 | 30.8 ± 1.37 | 27.7 ± 1.08 | 21.9 ± 1.41 | 47.4 ± 1.07 |  |  |  |  |  |  |  | 
13 | N.N.[Cl][Pt][Cl] [DPP, cisplatin, reference compound] | 5.28 ± 0.74 | 3.76 ± 0.38 | 5.12 ± 0.71 | 9.97 ± 1.12 | 4.57 ± 0.85 | 5.31 ± 0.26 | < 10 | < 10 | < 10 |  |  |  |  | 
14 | CC1(C)[C@@H](O)CC[C@]2(C)[C@H]3C(=O)C=C4[C@@H]5C[C@@](C)(C(=O)O)CC[C@]5(C)CC[C@@]4(C)[C@]3(C)CC[C@@H]12 [GA, Glycyrrhetinic acid] |  |  | > 100 |  |  |  |  |  |  | > 50 | > 50 | > 100 | > 50 | > 100
